Source: article PMC2948605 (Clinical cancer research : an official journal of the …, 2010)

What was measured:
treatment-naïve lymphoma = settings: DOX alone, treatment-naïve lymphoma in dogs; cited from earlier work
[1] = test system: dogs with spontaneous cancer
human patients = settings: cited from earlier work
[2] = Serum trough VPA concentration; format: in vivo, dog; settings: 48 h after start of oral VPA, before fifth dose
[3] = test system: canine and human osteosarcoma cells; settings: cited from earlier work
[4] = test system: WBC and neutrophil counts; experiment: Complete blood counts for myelosuppression; format: in vivo, dog
[5] = test system: acetylated histone H3 in PBMC; experiment: PBMC histone H3 acetylation by immunofluorescence; format: in vivo, dog; settings: fourteen evaluable PBMC samples, data not shown
[6] = Doxorubicin and doxorubicinol pharmacokinetics in plasma by LC/MS/MS; format: in vivo, dog; settings: three dogs, highest VPA cohort (240 mg/kg/day), IV DOX

Compound: COc1cccc2c1C(=O)c1c(O)c3c(c(O)c1C2=O)C[C@@](O)(C(=O)CO)C[C@@H]3O[C@H]1C[C@H](N)[C@H](O)[C@H](C)O1 [DOX, doxorubicin]
- Reported remission rates (treatment-naïve lymphoma): 60-85%
- Cardiotoxicity ([1]; VPA pre-treated dogs, not directly evaluated, cumulative DOX dose < 150 mg/m^2): did not observe any obvious cardiotoxicity

Compound: CCCC(CCC)C(=O)O [VPA, valproic acid]
- MTD in human Phase I studies (human patients): 140 mg/kg/day
- Trough serum VPA level reached [2]: up to 0.5 mM
- Grade 3 metabolic event (ALKP > 5× ULN) ([1]; 180/90 mg/kg cohort, patient with Stage 5 lymphoma): single Grade 3 metabolic event
- Grade 2 anorexia ([1]; 210/105 mg/kg cohort): single Grade 2 anorexia
- Dose limiting toxicities ([1]; dogs at 240 mg/kg/day): no dose limiting toxicities
- Tolerability ([1]; oral VPA, all dose-escalation cohorts): well tolerated in all dose-escalation cohorts
- Maximum tolerated dose (MTD) ([1]; oral VPA, cohorts up to 240/120 mg/kg loading/maintenance): No maximum tolerated dose (MTD) was reached
- VPA dose that can be administered prior to a standard dose of DOX ([1]; oral divalproex for 48 h before DOX, tumor-bearing dogs): up to 240 mg/kg/day
- Effect of VPA pre-treatment on sensitivity to doxorubicin ([3]; canine and human osteosarcoma cells): results in sensitization to doxorubicin
- VPA level capable of chemosensitization in vitro ([3]; previous work): 0.5 mM
- Myelosuppression induced by VPA ([4]; doses up to 240 mg/kg/day, day 3 vs day 1 WBC and neutrophils): does not induce any significant myelosuppression
- Potentiation of DOX induced myelosuppression ([4]; nadir WBC and neutrophil count day 7 post DOX vs VPA dose): no potentiation of DOX induced myelosuppression
- Correlation of fold change in PBMC histone H3 acetylation with trough VPA levels [5]: did not correlate

Compound: COc1cccc2c1C(=O)c1c(O)c3c(c(O)c1C2=O)C[C@@](O)([C@@H](O)CO)C[C@@H]3O[C@H]1C[C@H](N)[C@H](O)[C@H](C)O1 [doxorubicinol]
- PK of the major metabolite versus historical controls receiving DOX alone [6]: no significant changes
